Laboratory results taken from PMC6345968, “Structural basis for species-selective targeting of Hsp90 in a pathogenic fungus” (Nature Communications, 2019).
“And” between values parts separate entries of the source, which are not always exact repeats. Equal entries are not always repeated.

Assays:
[1] = tested on: Raw264.7 macrophages; test: Phagocytosis of GFP C. albicans by macrophages, flow cytometry; format: cell-based, mouse; settings: 2 h pre-treatment
Description: Compromise of host immune function and other target-related toxicities preclude the use of non-species-selective Hsp90 inhibitors in the treatment of fungal infections. Host defense against invasive infection relies heavily on the ingestion and destruction of C. albicans by innate immune cells, such as macrophages. […] After an additional two hours, phagocytosis of the fluorescently labeled fungi was measured by flow cytometry. […] This Hsp90-dependent morphogenetic program has an important role in the organism’s virulence and interactions with host immune effectors such as macrophages.
The ingestion of GFP-marked C. albicans CaCi-2 (CaLC867, Table S4) by mouse macrophages was monitored using flow cytometry. Raw264.7 macrophage cultures were pre-treated with various concentrations of Hsp90 inhibitors for 2 h at 37 °C and then infected with fungus at a multiplicity of infection of ~2 for an additional 2 h. Wells were harvested by trypsinization and resultant cell suspensions incubated with Guava ViaCount reagent per manufacturer’s recommendation (Millipore Sigma, Cat #4000-0040). Red fluorescent signal was used to identify macrophages while green fluorescent signal identified the fungus. Dual positive (red and green) events with appropriate forward- and side-scatter parameters were quantitated as representative of ingestion of fungus by a macrophage. […]

[2] = molecular target: human Hsp90 NBD (Homo sapiens, UniProt P08238); test: biochemical
Chain of human Hsp90 NBD (P08238 1-223): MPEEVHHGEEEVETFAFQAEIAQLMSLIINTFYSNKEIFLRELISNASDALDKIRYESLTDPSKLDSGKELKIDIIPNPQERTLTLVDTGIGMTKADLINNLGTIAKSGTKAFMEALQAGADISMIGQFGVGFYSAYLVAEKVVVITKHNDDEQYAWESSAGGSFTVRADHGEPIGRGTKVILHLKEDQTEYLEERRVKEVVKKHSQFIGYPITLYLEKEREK

In the case of `COc1ccc(CON=C2C=CC=CC3OC3CC(C)OC(=O)c3c(O)cc(O)cc3C2)cc1` (centres unmarked) [CMLD013075], the “effect on engulfment of C. albicans” value [1] is reported as “Neither compound impaired engulfment”, the IC50 ([2]; I50, single experiments Expt 1-3) is reported as 1650 nM and 1630 nM and 1250 nM and the IC50 ([2]; IC50 (Equation 16), corrected I50, single experiments, unit inferred) is reported as 1650 nM and 1620 nM and 1240 nM. The Ki ([2]; Inhibitor Ki, single experiments Expt 1-3) was 237 nM and 236 nM and 181 nM and the Ki ([2]; Ki, purified NBD, Cy3-GdA probe, mean (± SEM) of 3 experiments) was 218 nM.
